According to ChEMBL document CHEMBL1909294, “Translating clinical findings into knowledge in drug safety evaluation--drug induced liver injury prediction system (DILIps)” (PLoS Comput Biol, 2011):

Legend:
[1] = system: Hepatotoxicity;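 for HepSE bilirubinemia: bilirubinemia hepatic side effect score drawn from the DILIps training data, a prediction system for drug-induced liver injury; call rule not given here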;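 for HepSE cholecystitis: Cholecystitis-related hepatic side effect score drawn from the DILIps (drug-induced liver injury prediction) training data set; call rule not given here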;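 for HepSE cholelithiasis: hepatic side effect score for cholelithiasis, drawn from the DILIps training data for predicting drug-induced liver injury; call rule not given here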;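 for HepSE cirrhosis: cirrhosis hepatic side effect score taken from the DILIps (drug-induced liver injury prediction) training set; call rule not given here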;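 for HepSE elevated liver function tests: hepatic side effect score for raised liver function tests, as recorded in the DILIps training set used for predicting drug-induced liver injury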; for HepSE hepatic failure: call rule not given here;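 for HepSE hepatomegaly: hepatic side effect score for hepatomegaly, taken from the training set of the DILIps drug-induced liver injury prediction system; call rule not given here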
[2] = system: Hepatotoxicity; remark: listed apart in the source;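 for HepSE bilirubinemia: bilirubinemia hepatic side effect score drawn from the DILIps training data, a prediction system for drug-induced liver injury; call rule not given here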;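 for HepSE cholecystitis: Cholecystitis-related hepatic side effect score drawn from the DILIps (drug-induced liver injury prediction) training data set; call rule not given here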;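 for HepSE cholelithiasis: hepatic side effect score for cholelithiasis, drawn from the DILIps training data for predicting drug-induced liver injury; call rule not given here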;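 for HepSE cirrhosis: cirrhosis hepatic side effect score taken from the DILIps (drug-induced liver injury prediction) training set; call rule not given here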;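 for HepSE elevated liver function tests: hepatic side effect score for raised liver function tests, as recorded in the DILIps training set used for predicting drug-induced liver injury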; for HepSE hepatic failure: call rule not given here
[3] = system: Hepatotoxicity; remark: listed apart in the source;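 for HepSE bilirubinemia: bilirubinemia hepatic side effect score drawn from the DILIps training data, a prediction system for drug-induced liver injury; call rule not given here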;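 for HepSE cholecystitis: Cholecystitis-related hepatic side effect score drawn from the DILIps (drug-induced liver injury prediction) training data set; call rule not given here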;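 for HepSE cholelithiasis: hepatic side effect score for cholelithiasis, drawn from the DILIps training data for predicting drug-induced liver injury; call rule not given here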;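 for HepSE cirrhosis: cirrhosis hepatic side effect score taken from the DILIps (drug-induced liver injury prediction) training set; call rule not given here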;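 for HepSE elevated liver function tests: hepatic side effect score for raised liver function tests, as recorded in the DILIps training set used for predicting drug-induced liver injury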; for HepSE hepatic failure: call rule not given here
[4] = system: Hepatotoxicity; remark: listed apart in the source;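 for HepSE bilirubinemia: bilirubinemia hepatic side effect score drawn from the DILIps training data, a prediction system for drug-induced liver injury; call rule not given here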;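 for HepSE cholecystitis: Cholecystitis-related hepatic side effect score drawn from the DILIps (drug-induced liver injury prediction) training data set; call rule not given here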;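 for HepSE cholelithiasis: hepatic side effect score for cholelithiasis, drawn from the DILIps training data for predicting drug-induced liver injury; call rule not given here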;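 for HepSE cirrhosis: cirrhosis hepatic side effect score taken from the DILIps (drug-induced liver injury prediction) training set; call rule not given here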;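 for HepSE elevated liver function tests: hepatic side effect score for raised liver function tests, as recorded in the DILIps training set used for predicting drug-induced liver injury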; for HepSE hepatic failure: call rule not given here
[5] = system: Hepatotoxicity; remark: listed apart in the source; for HepSE hepatic failure: call rule not given here
[6] = system: Hepatotoxicity; remark: listed apart in the source; for HepSE hepatic failure: call rule not given here
[7] = system: Hepatotoxicity; remark: listed apart in the source
[8] = system: Hepatotoxicity; remark: listed apart in the source
[9] = system: Hepatotoxicity; remark: listed apart in the source
[10] = system: Hepatotoxicity; remark: listed apart in the source
[11] = system: Hepatotoxicity; remark: listed apart in the source
[12] = system: Hepatotoxicity; remark: listed apart in the source
[13] = system: Hepatotoxicity; remark: listed apart in the source
[14] = system: Hepatotoxicity; remark: listed apart in the source

Structure (SMILES)	HepSE_bilirubinemia [1]	HepSE_cholecystitis [2]	HepSE_cholelithiasis [3]	HepSE_cirrhosis [4]	HepSE_elevated liver function tests [5]	HepSE_hepatic failure [6]	HepSE_hepatic necrosis [7]	HepSE_hepatitis [8]	HepSE_hepatomegaly [9]	HepSE_jaundice [10]	HepSE_liver disease [11]	HepSE_liver fatty [12]	HepSE_liver function tests abnormal [13]	HepSE_Combined Scores [14]	other results
c1ccc2c(c1)CCCC2C1=NCCN1 (stereo unspecified) [TETRAHYDROZOLINE]	0	0	0	0	0	0	0	0	0	0	0	0	0	0	–
CCN(CC)CCOC(=O)c1ccc(N)cc1 [PROCAINE]	0	0	0	0	0	0	0	0	0	0	0	0	0	0	–
CCCCc1nc(Cl)c(CO)n1Cc1ccc(-c2ccccc2-c2nn[nH]n2)cc1 [LOSARTAN]	0	0	0	0	0	0	0	1	0	1	0	0	0	2	–
Cc1ccc(S(=O)(=O)NC(=O)NN2CCCCCC2)cc1 [TOLAZAMIDE]	0	0	0	0	0	0	0	0	0	1	0	0	0	1	–
O=C1CN=C(c2ccccc2Cl)c2cc([N+](=O)[O-])ccc2N1 [CLONAZEPAM]	0	0	0	0	0	0	0	0	1	0	0	0	0	1	–
COC(=O)[C@H](c1ccccc1Cl)N1CCc2sccc2C1 [CLOPIDOGREL]	–	–	–	–	–	–	–	–	–	–	–	–	–	–	HepSE_bilirubinemia ([1]; Liver): 1; HepSE_cholecystitis ([2]; Liver): 0; HepSE_cholelithiasis ([3]; Liver): 0; HepSE_cirrhosis ([4]; Liver): 0; HepSE_elevated liver function tests ([5]; Liver): 0; HepSE_hepatic failure ([6]; Liver): 1; HepSE_hepatic necrosis ([7]; Liver): 0; HepSE_hepatitis ([8]; Liver): 1; HepSE_hepatomegaly ([9]; Liver): 0; HepSE_jaundice ([10]; Liver): 0; HepSE_liver disease ([11]; Liver): 0; HepSE_liver fatty ([12]; Liver): 1; HepSE_liver function tests abnormal ([13]; Liver): 0; HepSE_Combined Scores ([14]; Liver): 4
C/C(=C\C(=O)OCCCCCCCCC(=O)O)C[C@@H]1OC[C@H](C[C@@H]2O[C@H]2[C@@H](C)[C@H](C)O)[C@@H](O)[C@H]1O [MUPIROCIN]	0	0	0	0	0	0	0	0	0	0	0	0	0	0	–
[N]=O [NITRIC OXIDE]	0	0	0	0	0	0	0	0	0	0	0	0	0	0	–
CSc1ccc2c(c1)N(CCC1CCCCN1C)c1ccccc1S2 (stereo unspecified) [THIORIDAZINE]	0	0	0	0	0	0	0	0	0	1	0	0	0	1	–
